{"source": "patent US8779004B2", "about": "“Stable emulsion formulations” (Amgen, Inc., priority 2006, dated 2014)", "key": {"[1]": {"assay": "Zeta potential titration of emulsions (droplet charge vs pH)", "assay_type": "physicochemical", "details": "SBO 10%, Lecithin 2% at pH 7; 5 mg/mL (formulation #1) versus 1 mg/mL (formulation #2)", "procedure": "Panel A, titration results of 1% EYP/10% SBO in 1 mM dibasic phosphate. Panel B, titration results of cinacalcet/1% EYP/10% SBO in 1 mM dibasic phosphate. Other components of the emulsions include 10% soybean oil, 1% egg lecithin, 2.25% glycerin and water. Panel C, titration results for Compound A. Emulsion composition: SBO 10%, Lecithin 2% at pH 7. Concentration of Compound A was 5 mg/mL for formulation #1 and 1 mg/mL for formulation #2.\nThe zeta potential measurements were made on a Malvern Zetasizer 4 laser-scattering particle electrophoretic analyzer that measures the electrophoretic mobility and zeta potential distribution. Samples were prepared for the zeta potential titration by diluting the emulsion approximately 2500 fold in 1 mM dibasic phosphate pH 9 and titrating the solution with 100 mM phosphoric acid in 0.5 pH unit increments. […] Theoretically, the emulsions are stabilized by this charge, which prevents the droplets from coalescing. […] In contrast, the cinacalcet emulsions achieve charge neutrality in the range of pH 7-7.5."}, "rabbit ear vein": {"test_system": "rabbit ear vein", "assay": "Acute local venous toxicity / irritation in the rabbit ear vein (REV)", "assay_type": "in vivo", "parameters": "Erythema / Edema: scale not given here", "text": "This Example illustrates the protective effect of the formulations of the invention as measured by irritation in the rabbit ear vein (REV). A typical protocol for evaluation of the local tolerance for formulations was as follows.\nDosing of animals. The rabbits used were male New Zealand rabbits weighing approximately 2.5 to 4 kg. The rabbits were acclimatized for a period of 10 days following receipt before the start of the study. The rabbits were randomized into groups based on the number of formulations to be studied. Typically 3 rabbits were used per group.\nFor each group of rabbits, the formulation containing the drug to be tested was dosed in the right marginal ear vein, with the corresponding placebo being dosed at the same time in the left marginal ear vein. The placebos were prepared such that they matched the formulation composition, and the technique of dosing for the drug formulations and the placebo formulations were kept the same. Typical dosing volumes ranged from 1 mL/kg to 5 mL/kg. The formulations were either dosed as (a) bolus injection wherein the entire dosing volume was administered within 5 minutes; (b) 30 minute infusion; or (c) a 2 hour infusion. The formulations were administered through appropriately sized syringes and catheters. The injection sites were marked with indelible ink for identification at each observation period. The rabbits were dosed based upon the Day 1 body weight.\nObservation of animals. Each animal was observed cage side at least twice daily for mortality/morbundity. Each animal received a detailed clinical observation once prior to randomization, once prior to dosage administration and once daily thereafter.\nAny abnormalities were recorded as they were observed. Observations for local irritation were scored according to the following scale\nAt each interval the area of irritation (if present) was also measured. The actual length and width in mm was recorded.\nOn day 3 the animals were euthanized and the tissues from the Pinna of the left and right ear, and any gross lesions (if present) of the ear or ear vein were collected. Histopathology was performed on the collected tissues. After fixation, the pinna was tripped into a total of 4 sections of 1 cm each; one of which included the deposition site (location of the end of the catheter in the ear) and one from approximately 1-, 2-, and 3-cm downstream from the deposition site. Each section included skin, cartilage, vein and other soft tissue. These tissues were then embedded in paraffin, sectioned and stained with hematoxylin and eosin, and examined via light microscopy."}, "[2]": {"assay": "Loss in drug strength due to adsorption to PVC tubing", "assay_type": "physicochemical", "procedure": "A solution of compound A was prepared in acetate mannitol buffer at pH 4. At this pH, the compound forms a clear solution of concentration 0.2 mg/mL. An equivalent emulsion was prepared at the same concentration with 5% soybean oil, 2% lecithin, 2% glycerin and 20 mM TRIS buffer at pH 9. PVC tubing was selected as an example of commonly used intravenous infusion set. 15 cm sections of this tube were filled with either the solution or emulsion formulation and clamped on both ends. These filled tubes were held at the ambient temperature for 1 hour. The formulations inside were collected and analyzed for drug content using reversed phase HPLC. […] Panel A: Compound A in acetate/mannitol solution, pre-exposure. Panel B: compound A in acetate/mannitol solution, after 1 hour of exposure to the PVC tubing. Panel C: compound A formulated in the emulsion of the invention, pre-exposure. Panel D: compound A formulated in the emulsion of the invention, pre-exposure, after 1 hour of exposure to the PVC tubing."}, "[3]": {"assay": "Solubility of calcimimetics in oil phases (RP-HPLC)", "assay_type": "physicochemical", "details": "long-chain oil phases; for solubility at 18 h: oil or lipid, thermodynamic from solid", "procedure": "The solubility measurements of the compounds were prepared by the addition of 1 g of drug substance to two milliliters of oil into a Wheaton 5 mL vial. The headspace was sparged with nitrogen, and enclosed with a West 4405/50 gray Teflon coated stopper and manually sealed by an aluminum overseal. The preparations were repeated again with the oils containing either purified egg or soy lecithin. All labeled vials were shaken at room temperature for eighteen hours on a platform shaker. After eighteen hours, the samples were diluted in mobile phase, and analyzed by the RP-HPLC method. Table 2 summarizes solubility results (expressed in mg/mL) of cinacalcet in various oil phases."}, "[4]": {"assay": "Long-term storage stability of emulsions (assay, pH, particle size)", "assay_type": "physicochemical", "details": "Compound A emulsions; over 14 months at any of the storage conditions tested", "procedure": "Calcimimetics emulsions for long-term studies were prepared at 5 mg/mL drug concentration, 5% SBO, 2% egg lecithin, 2% glycerin, 20 mM TRIS buffer at pH 9. The emulsions were packed in glass vials at 20 mL each and stored inverted in stability chambers. At each time-point, 3 vials from each chamber were pulled and analyzed for the calcimimetic concentration, pH and particle size. […] The values for pH dropped over time, with greater magnitude of drop seen at higher temperature."}, "cytochrome P450 2D6": {"molecular_target": "cytochrome P450 2D6 (Homo sapiens, UniProt P10635)", "sequence (P10635 whole entry)": "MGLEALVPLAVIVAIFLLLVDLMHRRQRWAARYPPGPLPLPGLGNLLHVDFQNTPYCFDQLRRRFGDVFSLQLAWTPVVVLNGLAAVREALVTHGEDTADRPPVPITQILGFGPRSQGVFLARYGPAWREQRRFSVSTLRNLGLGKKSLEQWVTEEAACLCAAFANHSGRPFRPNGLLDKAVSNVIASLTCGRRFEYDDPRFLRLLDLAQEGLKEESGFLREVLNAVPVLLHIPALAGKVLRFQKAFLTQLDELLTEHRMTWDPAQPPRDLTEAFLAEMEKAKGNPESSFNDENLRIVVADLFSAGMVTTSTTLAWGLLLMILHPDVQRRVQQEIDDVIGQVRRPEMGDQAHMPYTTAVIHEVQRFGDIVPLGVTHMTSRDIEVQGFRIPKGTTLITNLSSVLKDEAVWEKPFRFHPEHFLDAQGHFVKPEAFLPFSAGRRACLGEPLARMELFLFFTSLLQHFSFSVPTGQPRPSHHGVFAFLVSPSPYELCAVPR", "details": "stated as known; cited from earlier work"}, "[5]": {"details": "emulsion with TRIS buffer 20 mM, pH 9, 2-hour infusion, 2 mg/kg (conc. 5 mg/mL), 0 h"}, "[6]": {"details": "emulsion with TRIS buffer 20 mM, pH 9, 2-hour infusion, 2 mg/kg (conc. 5 mg/mL), 48 h"}, "[7]": {"details": "emulsion with TRIS buffer 20 mM, pH 9, 2-hour infusion, 6 mg/kg (conc. 5 mg/mL), 0 h"}, "[8]": {"details": "emulsion with TRIS buffer 20 mM, pH 9, 2-hour infusion, 6 mg/kg (conc. 5 mg/mL), 48 h"}, "[9]": {"details": "solution in acetate mannitol buffer, pH 4, 2 hour infusion, 1 mg/kg (conc. 0.1 mg/mL), 0 h"}, "[10]": {"details": "solution in acetate mannitol buffer, pH 4, 2 hour infusion, 1 mg/kg (conc. 0.1 mg/mL), 48 h"}}}
{"smiles": "COc1ccc(CN[C@H](C)c2ccccc2)cc1-c1ccc(C(F)(F)F)cc1", "note": "[Compound A, (1R)—N-((6-(methyloxy)-4′-(trifluoromethyl)-1,1′-biphenyl-3-yl)methyl)-1-phenylethanamine]", "values": [{"measurement": "pH at which emulsion reaches neutral charge", "setting": "[1]", "result": "reaches neutral charge at a higher pH"}, {"measurement": "local venous toxicity", "setting": "rabbit ear vein; dosed as a solution", "result": "evidence of local venous toxicity"}, {"measurement": "effect on the vasculature", "setting": "rabbit ear vein; emulsion containing Compound A", "result": "protective effect on the vasculature"}, {"measurement": "Edema", "setting": "rabbit ear vein; [5]", "result": "0.0 ± 0.0"}, {"measurement": "Erythema", "setting": "rabbit ear vein; [5]", "result": "0.0 ± 0.0"}, {"measurement": "Edema", "setting": "rabbit ear vein; [6]", "result": "0.0 ± 0.0"}, {"measurement": "Erythema", "setting": "rabbit ear vein; [6]", "result": "0.0 ± 0.0"}, {"measurement": "Edema", "setting": "rabbit ear vein; [7]", "result": "0.0 ± 0.0"}, {"measurement": "Erythema", "setting": "rabbit ear vein; [7]", "result": "0.0 ± 0.0"}, {"measurement": "Edema", "setting": "rabbit ear vein; [8]", "result": "0.0 ± 0.0"}, {"measurement": "Erythema", "setting": "rabbit ear vein; [8]", "result": "0.0 ± 0.0"}, {"measurement": "Histopathology: severity and incidence of edema, hemorrhage and subacute inflammation", "setting": "rabbit ear vein; emulsion with TRIS buffer 20 mM, pH 9, 2-hour infusion, 2 and 6 mg/kg, compared to the solution", "result": "much lower in all thee animals as compared"}, {"measurement": "Edema", "setting": "rabbit ear vein; [9]", "result": "0.0 ± 0.0"}, {"measurement": "Erythema", "setting": "rabbit ear vein; [9]", "result": "0.0 ± 0.0"}, {"measurement": "Edema", "setting": "rabbit ear vein; [10]", "result": "0.0 ± 0.0"}, {"measurement": "Erythema", "setting": "rabbit ear vein; [10]", "result": "1.3 ± 2.3"}, {"measurement": "Histopathology: severity and incidence of edema, hemorrhage and subacute inflammation", "setting": "rabbit ear vein; solution in acetate mannitol buffer, pH 4, 2 hour infusion, 1 mg/kg, compared to placebo", "result": "higher in the ears treated with Compound A"}, {"measurement": "difference in concentration of drug before or after exposure to tubing", "setting": "[2]; 0.2 mg/mL emulsion (5% soybean oil, 2% lecithin, 2% glycerin, 20 mM TRIS, pH 9), 1 hour", "result": "no significant difference"}, {"measurement": "drug concentration after 1 hour holding in the tubing", "setting": "[2]; 0.2 mg/mL solution in acetate mannitol buffer at pH 4, ambient temperature", "result": "about 50 % of initial concentration"}, {"measurement": "solubility at 18 h", "setting": "[3]", "result": "> 300", "unit": "mg/mL"}, {"measurement": "change in particle size", "setting": "[4]", "result": "No change"}]}
{"smiles": "COc1ccc(CN[C@H](C)c2cccc3ccccc23)cc1-c1ccc(OC(F)(F)F)cc1", "note": "[Compound B, (1R)—N-((6-(methyloxy)-4′-((trifluoromethyl)oxy)-1,1′-biphenyl-3-yl)methyl)-1-(1-naphthalenyl)ethanamine]", "values": [{"measurement": "solubility at 18 h", "setting": "[3]", "result": 50, "unit": "mg/mL"}]}
{"smiles": "COc1ccc(CN[C@H](C)c2ccccc2)cc1-c1ccc(OC(F)(F)F)cc1", "note": "[Compound C, (1R)—N-((6-(methyloxy)-4′-((trifluoromethyl)oxy)-1,1′-biphenyl-3-yl)methyl)-1-phenylethanamine]", "values": [{"measurement": "solubility at 18 h", "setting": "[3]", "result": "> 300", "unit": "mg/mL"}]}
{"smiles": "COc1ccc(CN[C@H](C)c2cccc(F)c2)cc1-c1ccc(C(F)(F)F)cc1", "note": "[Compound D, (1R)-1-(3-fluorophenyl)-N-((6-(methyloxy)-4′-(trifluoromethyl)-1,1′-biphenyl-3-yl)methyl)ethanamine]", "values": [{"measurement": "solubility at 18 h", "setting": "[3]", "result": "> 300", "unit": "mg/mL"}]}
{"smiles": "COc1ccc(CN[C@H](C)c2cccc(Cl)c2)cc1-c1ccc(C(F)(F)F)cc1", "note": "[Compound E, (1R)-1-(3-chlorophenyl)-N-((6-(methyloxy)-4′-(trifluoromethyl)-1,1′-biphenyl-3-yl)methyl)ethanamine]", "values": [{"measurement": "solubility at 18 h", "setting": "[3]", "result": "> 300", "unit": "mg/mL"}]}
{"smiles": "CCn1cc(-c2cccc(C(F)(F)F)c2)c2cc(CN[C@H](C)c3ccccc3)ccc21", "note": "[Compound F, (1R)—N-((1-ethyl-3-(3-(trifluoromethyl)phenyl)-1H-indol-5-yl)methyl)-1-phenylethanamine]", "values": [{"measurement": "solubility at 18 h", "setting": "[3]", "result": "> 300", "unit": "mg/mL"}]}
{"smiles": "COc1ccc([C@@H](C)N[C@H](C)c2ccccc2)cc1-c1ccc(C(F)(F)F)cc1", "note": "[Compound G]", "values": [{"measurement": "Solubility", "setting": "[3]", "result": ">50", "unit": "mg/mL"}]}
{"smiles": "C[C@@H](NCc1ccc(Cl)c(-c2ccc(OC(F)(F)F)cc2)c1)c1cccc2ccccc12", "note": "[Compound H, (1R)—N-((6-chloro-4′-((trifluoromethyl)oxy)-3-biphenyl)methyl)-1-(1-naphthalenyl)ethanolamine]", "values": [{"measurement": "Solubility", "setting": "[3]", "result": ">50", "unit": "mg/mL"}]}
{"smiles": "C[C@@H](NCCCc1cccc(C(F)(F)F)c1)c1cccc2ccccc12", "note": "[Sensipar]", "values": [{"measurement": "metabolism", "setting": "cytochrome P450 2D6", "result": "metabolized by cytochrome P450 2D6"}]}
